# Key:
# [1] = target: Serine/threonine-protein kinase N2 (Homo sapiens) (UniProt Q16513); assay: Inhibition of human PRK2 assessed as enzyme residual activity at 100 nM by radiometric filter binding assay relative to control
# [2] = target: Receptor-interacting serine/threonine-protein kinase 2 (Homo sapiens) (UniProt O43353); assay: Inhibition of human RIPK2 assessed as enzyme residual activity at 100 nM by radiometric filter binding assay relative to control
# [3] = target: Ephrin type-A receptor 2 (Homo sapiens) (UniProt P29317); assay: Inhibition of human EPHA2 assessed as enzyme residual activity at 100 nM by radiometric filter binding assay relative to control
# [4] = target: Mitogen-activated protein kinase 14 (Homo sapiens) (UniProt Q16539); assay: Inhibition of human p38alpha MAPK assessed as enzyme residual activity at 100 nM by radiometric filter binding assay relative to control
# Sequence of Mitogen-activated protein kinase 14 (Homo sapiens) (Q16539 whole entry): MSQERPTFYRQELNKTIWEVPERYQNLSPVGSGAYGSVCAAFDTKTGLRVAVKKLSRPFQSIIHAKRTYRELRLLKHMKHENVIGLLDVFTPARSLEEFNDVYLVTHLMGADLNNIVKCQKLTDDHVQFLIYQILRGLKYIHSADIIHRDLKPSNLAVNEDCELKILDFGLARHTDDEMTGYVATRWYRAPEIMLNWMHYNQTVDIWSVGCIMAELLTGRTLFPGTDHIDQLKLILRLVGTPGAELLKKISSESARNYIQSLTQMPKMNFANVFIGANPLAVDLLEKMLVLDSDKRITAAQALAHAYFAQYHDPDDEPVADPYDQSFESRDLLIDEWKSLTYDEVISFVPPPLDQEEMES
# [5] = target: MAP/microtubule affinity-regulating kinase 3 (Homo sapiens) (UniProt P27448); assay: Inhibition of human MARK3 assessed as enzyme residual activity at 100 nM by radiometric filter binding assay relative to control
# [6] = target: Casein kinase I isoform delta (Homo sapiens) (UniProt P48730); assay: Inhibition of human CK1delta assessed as enzyme residual activity at 100 nM by radiometric filter binding assay relative to control
# [7] = target: Rho-associated protein kinase 2 (Rattus norvegicus) (UniProt Q62868); assay: Inhibition of rat ROCK2 assessed as enzyme residual activity at 100 nM by radiometric filter binding assay relative to control
# [8] = target: Serine/threonine-protein kinase Sgk1 (Homo sapiens) (UniProt O00141); assay: Inhibition of human SGK1 assessed as enzyme residual activity at 100 nM by radiometric filter binding assay relative to control
# Sequence of Serine/threonine-protein kinase Sgk1 (Homo sapiens) (O00141 whole entry): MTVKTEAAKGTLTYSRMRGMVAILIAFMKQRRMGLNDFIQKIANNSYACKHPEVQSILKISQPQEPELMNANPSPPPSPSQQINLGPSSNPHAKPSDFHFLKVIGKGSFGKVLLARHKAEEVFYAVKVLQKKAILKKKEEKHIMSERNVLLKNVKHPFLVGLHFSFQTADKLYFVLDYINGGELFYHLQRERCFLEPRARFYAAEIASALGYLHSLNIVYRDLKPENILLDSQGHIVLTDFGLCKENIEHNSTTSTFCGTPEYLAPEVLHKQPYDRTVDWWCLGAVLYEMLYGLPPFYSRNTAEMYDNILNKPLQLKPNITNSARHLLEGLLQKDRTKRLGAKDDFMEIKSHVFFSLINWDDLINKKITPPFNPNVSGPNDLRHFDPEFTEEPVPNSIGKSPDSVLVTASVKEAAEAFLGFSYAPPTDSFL
# [9] = target: Serine/threonine-protein kinase Nek6 (Homo sapiens) (UniProt Q9HC98); assay: Inhibition of human NEK6 assessed as enzyme residual activity at 100 nM by radiometric filter binding assay relative to control
# Sequence of Serine/threonine-protein kinase Nek6 (Homo sapiens) (Q9HC98 whole entry): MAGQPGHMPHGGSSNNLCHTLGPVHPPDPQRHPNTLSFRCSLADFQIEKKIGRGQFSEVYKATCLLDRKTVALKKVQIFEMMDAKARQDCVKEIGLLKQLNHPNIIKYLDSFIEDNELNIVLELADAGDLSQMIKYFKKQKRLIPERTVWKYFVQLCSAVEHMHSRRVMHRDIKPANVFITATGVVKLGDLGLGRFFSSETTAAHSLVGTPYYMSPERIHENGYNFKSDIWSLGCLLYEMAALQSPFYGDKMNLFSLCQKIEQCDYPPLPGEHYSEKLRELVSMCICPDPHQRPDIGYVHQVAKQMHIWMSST
# [10] = target: Serine/threonine-protein kinase D1 (Homo sapiens) (UniProt Q15139); assay: Inhibition of human PKD1 assessed as enzyme residual activity at 100 nM by radiometric filter binding assay relative to control
# Sequence of Serine/threonine-protein kinase D1 (Homo sapiens) (Q15139 whole entry, looked up): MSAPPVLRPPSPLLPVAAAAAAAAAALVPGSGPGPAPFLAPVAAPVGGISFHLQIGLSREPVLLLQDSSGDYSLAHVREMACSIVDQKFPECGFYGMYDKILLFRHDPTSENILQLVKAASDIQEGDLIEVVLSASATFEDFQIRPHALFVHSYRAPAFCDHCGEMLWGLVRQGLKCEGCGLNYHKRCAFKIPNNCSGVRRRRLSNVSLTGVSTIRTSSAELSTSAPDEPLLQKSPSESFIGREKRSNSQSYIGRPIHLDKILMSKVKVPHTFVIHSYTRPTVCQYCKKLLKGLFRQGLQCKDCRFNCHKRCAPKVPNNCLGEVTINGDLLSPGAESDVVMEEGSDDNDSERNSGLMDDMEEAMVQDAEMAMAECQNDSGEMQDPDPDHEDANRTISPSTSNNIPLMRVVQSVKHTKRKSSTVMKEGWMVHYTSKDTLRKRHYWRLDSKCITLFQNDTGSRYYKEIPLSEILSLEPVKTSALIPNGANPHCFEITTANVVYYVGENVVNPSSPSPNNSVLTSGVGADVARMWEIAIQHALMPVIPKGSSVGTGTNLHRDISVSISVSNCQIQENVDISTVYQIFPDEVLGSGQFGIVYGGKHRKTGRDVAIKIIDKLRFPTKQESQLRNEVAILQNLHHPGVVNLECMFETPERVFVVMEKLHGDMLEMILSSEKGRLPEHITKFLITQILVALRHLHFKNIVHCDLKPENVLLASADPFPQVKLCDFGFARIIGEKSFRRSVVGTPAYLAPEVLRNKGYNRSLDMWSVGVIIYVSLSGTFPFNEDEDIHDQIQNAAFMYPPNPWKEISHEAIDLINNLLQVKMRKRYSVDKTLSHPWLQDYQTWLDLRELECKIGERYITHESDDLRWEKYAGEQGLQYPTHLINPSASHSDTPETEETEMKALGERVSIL
# [11] = target: Ribosomal protein S6 kinase alpha-5 (Homo sapiens) (UniProt O75582); assay: Inhibition of human MSK1 assessed as enzyme residual activity at 100 nM by radiometric filter binding assay relative to control
# Sequence of Ribosomal protein S6 kinase alpha-5 (Homo sapiens) (O75582 whole entry, looked up): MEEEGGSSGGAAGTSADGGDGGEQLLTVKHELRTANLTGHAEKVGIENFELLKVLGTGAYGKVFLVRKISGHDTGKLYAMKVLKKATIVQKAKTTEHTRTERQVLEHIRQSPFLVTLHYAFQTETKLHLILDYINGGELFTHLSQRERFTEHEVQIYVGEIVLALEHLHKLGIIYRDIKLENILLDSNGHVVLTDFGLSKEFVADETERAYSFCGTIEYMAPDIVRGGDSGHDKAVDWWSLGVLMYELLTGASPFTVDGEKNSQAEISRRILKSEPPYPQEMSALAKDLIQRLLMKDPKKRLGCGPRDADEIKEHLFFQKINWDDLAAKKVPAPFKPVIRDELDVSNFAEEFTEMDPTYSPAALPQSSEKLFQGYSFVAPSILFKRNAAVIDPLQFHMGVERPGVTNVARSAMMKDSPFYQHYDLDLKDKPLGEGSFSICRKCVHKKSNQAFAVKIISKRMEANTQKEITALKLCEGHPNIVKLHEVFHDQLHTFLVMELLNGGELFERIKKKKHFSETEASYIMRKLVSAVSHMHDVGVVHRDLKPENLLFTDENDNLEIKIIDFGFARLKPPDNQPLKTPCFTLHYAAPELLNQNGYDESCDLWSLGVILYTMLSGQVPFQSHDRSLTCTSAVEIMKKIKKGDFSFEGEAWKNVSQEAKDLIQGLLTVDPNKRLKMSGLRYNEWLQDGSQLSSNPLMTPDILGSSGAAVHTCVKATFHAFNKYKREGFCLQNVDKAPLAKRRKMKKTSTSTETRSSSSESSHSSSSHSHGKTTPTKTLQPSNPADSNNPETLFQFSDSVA
# [12] = target: Serine/threonine-protein kinase 3 (Homo sapiens) (UniProt Q13188); assay: Inhibition of human MST2 assessed as enzyme residual activity at 100 nM by radiometric filter binding assay relative to control
# [13] = target: Serine/threonine-protein kinase STK11 (Homo sapiens) (UniProt Q15831); assay: Inhibition of human LKB1 assessed as enzyme residual activity at 100 nM by radiometric filter binding assay relative to control
# Sequence of Serine/threonine-protein kinase STK11 (Homo sapiens) (Q15831 whole entry): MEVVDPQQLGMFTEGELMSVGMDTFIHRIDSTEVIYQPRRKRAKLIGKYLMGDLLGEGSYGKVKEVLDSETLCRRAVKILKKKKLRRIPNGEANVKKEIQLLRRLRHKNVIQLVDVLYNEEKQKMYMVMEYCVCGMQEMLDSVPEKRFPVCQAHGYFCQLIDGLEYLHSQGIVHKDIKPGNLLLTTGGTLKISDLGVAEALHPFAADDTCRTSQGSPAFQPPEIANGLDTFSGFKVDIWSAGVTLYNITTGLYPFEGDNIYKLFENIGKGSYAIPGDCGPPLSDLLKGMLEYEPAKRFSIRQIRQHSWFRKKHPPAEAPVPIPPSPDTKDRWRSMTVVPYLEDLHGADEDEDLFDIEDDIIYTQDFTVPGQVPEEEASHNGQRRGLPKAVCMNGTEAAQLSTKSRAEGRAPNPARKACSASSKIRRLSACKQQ
# [14] = target: RAC-alpha serine/threonine-protein kinase (Homo sapiens) (UniProt P31749); assay: Inhibition of human PKBa assessed as enzyme residual activity at 100 nM by radiometric filter binding assay relative to control
# [15] = target: Ribosomal protein S6 kinase beta-1 (Homo sapiens) (UniProt P23443); assay: Inhibition of human S6K1 assessed as enzyme residual activity at 100 nM by radiometric filter binding assay relative to control
# Sequence of Ribosomal protein S6 kinase beta-1 (Homo sapiens) (P23443 whole entry, looked up): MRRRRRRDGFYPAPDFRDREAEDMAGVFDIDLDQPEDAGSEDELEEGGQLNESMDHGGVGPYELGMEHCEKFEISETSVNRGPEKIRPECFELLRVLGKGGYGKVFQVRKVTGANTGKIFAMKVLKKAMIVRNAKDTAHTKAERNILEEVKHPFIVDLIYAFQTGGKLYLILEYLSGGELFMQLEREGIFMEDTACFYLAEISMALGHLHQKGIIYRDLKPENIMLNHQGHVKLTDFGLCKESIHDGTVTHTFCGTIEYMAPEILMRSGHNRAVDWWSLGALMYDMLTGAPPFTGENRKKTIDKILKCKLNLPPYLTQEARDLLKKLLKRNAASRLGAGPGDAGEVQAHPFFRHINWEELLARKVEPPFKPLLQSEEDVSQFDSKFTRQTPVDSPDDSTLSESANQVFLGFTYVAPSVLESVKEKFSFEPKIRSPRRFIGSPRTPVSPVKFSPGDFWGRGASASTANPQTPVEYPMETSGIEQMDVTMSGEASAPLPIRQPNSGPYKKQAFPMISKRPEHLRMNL
# [16] = target: AMP-activated protein kinase, AMPK (Homo sapiens) (UniProt P54646+O43741+P54619+Q9UGJ0+Q9Y478+Q13131+Q9UGI9); assay: Inhibition of human AMPK assessed as enzyme residual activity at 100 nM by radiometric filter binding assay relative to control; format: protein-complex assay
# [17] = target: Serine/threonine-protein kinase TBK1 (Homo sapiens) (UniProt Q9UHD2); assay: Inhibition of human TBK1 assessed as enzyme residual activity at 100 nM by radiometric filter binding assay relative to control
# [18] = target: Interleukin-1 receptor-associated kinase 4 (Homo sapiens) (UniProt Q9NWZ3); assay: Inhibition of human IRAK4 assessed as enzyme residual activity at 100 nM by radiometric filter binding assay relative to control
# [19] = target: Proto-oncogene tyrosine-protein kinase LCK (Mus musculus) (UniProt P06240); assay: Inhibition of mouse Lck assessed as enzyme residual activity at 100 nM by radiometric filter binding assay relative to control
# [20] = target: Mitogen-activated protein kinase kinase kinase 7 (Homo sapiens) (UniProt O43318); assay: Inhibition of human TAK1 assessed as enzyme residual activity at 100 nM by radiometric filter binding assay relative to control
# Sequence of Mitogen-activated protein kinase kinase kinase 7 (Homo sapiens) (O43318 whole entry): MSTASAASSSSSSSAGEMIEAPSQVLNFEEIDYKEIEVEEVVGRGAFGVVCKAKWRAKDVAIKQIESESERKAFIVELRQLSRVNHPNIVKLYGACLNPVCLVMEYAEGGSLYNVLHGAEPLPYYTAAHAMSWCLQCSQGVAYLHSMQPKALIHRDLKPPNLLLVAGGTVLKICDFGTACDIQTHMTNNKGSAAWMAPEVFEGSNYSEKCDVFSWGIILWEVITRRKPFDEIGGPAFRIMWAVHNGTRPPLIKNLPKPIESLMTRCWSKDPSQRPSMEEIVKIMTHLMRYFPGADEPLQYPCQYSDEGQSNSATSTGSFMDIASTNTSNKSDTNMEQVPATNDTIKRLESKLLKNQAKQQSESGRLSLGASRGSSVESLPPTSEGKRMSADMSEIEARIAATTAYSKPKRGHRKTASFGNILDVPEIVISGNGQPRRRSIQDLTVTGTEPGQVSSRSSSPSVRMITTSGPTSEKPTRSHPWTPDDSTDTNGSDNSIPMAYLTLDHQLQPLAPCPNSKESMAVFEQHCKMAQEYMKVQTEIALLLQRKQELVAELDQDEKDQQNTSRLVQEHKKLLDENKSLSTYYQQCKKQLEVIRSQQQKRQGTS
# Sequence of Receptor-interacting serine/threonine-protein kinase 2 (Homo sapiens) (O43353 whole entry): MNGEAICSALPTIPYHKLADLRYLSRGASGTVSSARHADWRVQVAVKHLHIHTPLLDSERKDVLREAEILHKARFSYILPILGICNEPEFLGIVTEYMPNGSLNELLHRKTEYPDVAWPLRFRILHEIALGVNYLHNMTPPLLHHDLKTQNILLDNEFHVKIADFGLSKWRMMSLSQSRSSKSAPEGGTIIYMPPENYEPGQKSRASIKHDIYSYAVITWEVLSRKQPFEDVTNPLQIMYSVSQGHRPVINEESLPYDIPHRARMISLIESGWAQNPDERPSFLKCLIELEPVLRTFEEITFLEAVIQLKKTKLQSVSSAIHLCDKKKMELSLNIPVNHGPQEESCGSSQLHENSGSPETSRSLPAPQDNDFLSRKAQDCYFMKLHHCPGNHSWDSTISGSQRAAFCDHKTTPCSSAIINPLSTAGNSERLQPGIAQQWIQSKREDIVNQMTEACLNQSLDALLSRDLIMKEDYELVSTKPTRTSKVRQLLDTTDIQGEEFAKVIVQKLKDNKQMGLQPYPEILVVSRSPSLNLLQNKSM
compound,measurement,setting,value
NCCCC[C@@H](NC(=O)[C@@H](CC(=O)O)NC(=O)[C@@H](CC(=O)O)NC(=O)[C@@H](CC(=O)O)NC(=O)[C@@H](CC(=O)O)NC(=O)[C@@H](CC(=O)O)NC(=O)[C@@H](CC(=O)O)NC(=O)CCCCCNC(=O)CCC(=O)Nc1ncc(-c2ccc(C(=O)O)cc2)s1)C(=O)O,Activity,[1],109%
same,Activity,[2],85%
same,Activity,[3],107%
same,Activity,[4],102%
same,Activity,[5],99%
same,Activity,[6],107%
same,Activity,[7],96.5%
same,Activity,[8],97%
same,Activity,[9],103%
same,Activity,[10],117%
same,Activity,[11],115%
same,Activity,[12],101%
same,Activity,[13],107%
same,Activity,[14],105%
same,Activity,[15],104%
same,Activity,[16],69%
same,Activity,[17],78%
same,Activity,[18],102%
same,Activity,[19],101%
same,Activity,[20],62%
